Source: PMC12169613 (Journal of Medicinal Chemistry, 2025)
Where two headings read alike, the source gives them in different places.

Assays:
human Y1 receptor (hY1R) = human Y1 receptor (hY1R) (Homo sapiens, UniProt P25929)
Nluc-GPR1 = Nluc-GPR1 (Homo sapiens, UniProt P46091); assay: cell-based
Description: After overnight incubation at standard conditions, 75,000 cells/well were seeded into a black, solid 96-well plate using phenol red-free culture medium. […] (positive control) was added to the cells. […] The readout was performed directly in a microplate reader (Tecan Spark) with a filter for fluorescence (λem = 550–700 nm) and bioluminescence (λem = 430–470 nm). Data studies were performed as mentioned for arr-3 BRET.

CMKLR1 [1] = target: CMKLR1 (Homo sapiens, UniProt Q99788)
Sequence of CMKLR1 (Homo sapiens, UniProt Q99788) (Q99788 3-373): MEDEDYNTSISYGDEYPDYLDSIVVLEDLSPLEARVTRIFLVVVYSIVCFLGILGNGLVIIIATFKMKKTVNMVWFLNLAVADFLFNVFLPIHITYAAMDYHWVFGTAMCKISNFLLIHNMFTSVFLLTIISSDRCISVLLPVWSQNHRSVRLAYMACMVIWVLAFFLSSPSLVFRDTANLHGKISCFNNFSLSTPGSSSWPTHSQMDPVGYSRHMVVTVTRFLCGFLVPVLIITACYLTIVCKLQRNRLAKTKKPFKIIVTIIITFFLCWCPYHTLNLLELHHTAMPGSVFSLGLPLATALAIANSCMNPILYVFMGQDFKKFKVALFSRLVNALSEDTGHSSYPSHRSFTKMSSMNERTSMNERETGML
Text: Data are presented as mean±SEM.
(2 pictures or pasted objects on this page, not shown here)

CMKLR1 [2] = details: cited from earlier work

Sequence of Nluc-GPR1 (P46091 whole entry): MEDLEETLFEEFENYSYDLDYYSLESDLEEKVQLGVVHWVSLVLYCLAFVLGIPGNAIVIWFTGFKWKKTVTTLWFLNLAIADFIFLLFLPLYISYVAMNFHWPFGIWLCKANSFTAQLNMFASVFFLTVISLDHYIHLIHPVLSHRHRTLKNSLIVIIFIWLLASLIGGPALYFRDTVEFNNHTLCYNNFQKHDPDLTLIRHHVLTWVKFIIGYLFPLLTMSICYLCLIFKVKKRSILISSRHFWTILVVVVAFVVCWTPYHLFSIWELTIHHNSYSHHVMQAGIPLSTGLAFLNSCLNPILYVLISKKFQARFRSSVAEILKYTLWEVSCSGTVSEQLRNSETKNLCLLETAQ
Sequence of human Y1 receptor (hY1R) (P25929 whole entry): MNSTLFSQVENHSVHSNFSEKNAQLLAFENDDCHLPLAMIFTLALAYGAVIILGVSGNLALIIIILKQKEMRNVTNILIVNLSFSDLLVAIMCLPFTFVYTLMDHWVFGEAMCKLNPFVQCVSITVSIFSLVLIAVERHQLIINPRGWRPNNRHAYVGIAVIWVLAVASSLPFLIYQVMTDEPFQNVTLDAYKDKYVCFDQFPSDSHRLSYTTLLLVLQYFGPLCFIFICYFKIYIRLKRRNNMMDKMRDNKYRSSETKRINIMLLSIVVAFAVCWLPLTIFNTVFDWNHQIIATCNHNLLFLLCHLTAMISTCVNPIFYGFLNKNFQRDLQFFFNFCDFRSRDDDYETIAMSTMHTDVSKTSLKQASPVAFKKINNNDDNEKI

Compound | effect at hY1R (in words) (human Y1 receptor (hY1R)) | Ki (Nluc-GPR1) | Ki (Nluc-GPR1; read-out: Nluc-GPR1 Ki) | influence on CMKLR1 G protein signaling (in words) (CMKLR1 [1]) | IC50 (CMKLR1 [2])
COc1ccc(C)cc1NC(=O)CSc1nc(=O)c(S(=O)(=O)c2ccc(C)c(Cl)c2)c[nH]1 [Compound 1, 2-{[5-(3-Chloro-4-methylbenzenesulfonyl)-4-oxo-1,4-dihydropyrimidin-2-yl]sulfanyl}-N-(2-methoxy-5-methyl-phenyl)acetamide] | no effect | > 1000 nM | 1320 nM | – | –
C[N+](C)(C)CCC(=O)c1cccc2ccccc12.[I-] [α-NETA, 2-(α-naphthoyl)-ethyl-trimethylammonium iodide] | – | – | – | No influence | 380 nM
